Results reported in patent US4552701A, “Glycopeptide antibiotics and process of preparation” (Eli Lilly and Company, priority 1984, dated 1985).

How the values were obtained:
Escherichia coli TEM = type: cell-based; details: agar dilution
[1] = test system: Streptococcus pyogenes C203; type: cell-based; details: agar dilution
Klebsiella pneumonia X68 = type: cell-based; details: agar dilution
[2] = test system: Staphylococcus epidermidis EP11; type: cell-based; details: agar dilution
[3] = test system: Streptococcus pneumoniae Park 1; type: cell-based; details: agar dilution
Klebsiella pneumonia X26 = type: cell-based; details: agar dilution
[4] = test system: Staphylococcus aureus NRRL B313; details: agar dilution
Escherichia coli N10 = type: cell-based; details: agar dilution
Escherichia coli EC14 = type: cell-based; details: agar dilution
[5] = test system: Haemophilus influenzae C.L.; type: cell-based; details: agar dilution
[6] = test system: Staphylococcus epidermidis 222; type: cell-based; details: agar dilution
[7] = test system: Haemophilus influenzae 76; type: cell-based; details: agar dilution
[8] = test system: Staphylococcus aureus X400; details: agar dilution
[9] = test system: Streptococcus sp. group D 2041; type: cell-based; details: agar dilution
[10] = test system: Staphylococcus aureus V41; details: agar dilution
Klebsiella pneumonia KAE = type: cell-based; details: agar dilution
[11] = test system: Streptococcus faecium ATCC 9790; type: cell-based; details: agar dilution
[12] = test system: Peptococcus asaccharolyticus 1302; type: cell-based; details: agar dilution, read after 24 hrs
[13] = test system: Peptostreptococcus intermedius 1264; type: cell-based; details: agar dilution, read after 24 hrs
[14] = test system: Bacteroides thetaiotaomicron 1438; type: cell-based; details: agar dilution, read after 24 hrs
[15] = test system: Fusobacterium symbiosum 1470; type: cell-based; details: agar dilution, read after 24 hrs
[16] = test system: Fusobacterium necrophorum 6054A; type: cell-based; details: agar dilution, read after 24 hrs
[17] = test system: Bacteroides fragilis 1877; type: cell-based; details: agar dilution, read after 24 hrs
[18] = test system: Bacteroides melaninogenicus 2736; type: cell-based; details: agar dilution, read after 24 hrs
[19] = test system: Clostridium septicum 1128; type: cell-based; details: agar dilution, read after 24 hrs
Description: (§1) | read after 24hrs. incubation.

[20] = test system: Clostridium difficile 2994; type: cell-based; details: agar dilution, read after 24 hrs
Description: as §1

[21] = test system: Bacteroides vulgatis 1211; type: cell-based; details: agar dilution, read after 24 hrs
Peptococcus prevoti 1281 = details: agar dilution, read after 24 hrs
[22] = test system: Eubacterium aerofaciens 1235; type: cell-based; details: agar dilution, read after 24 hrs
[23] = test system: Peptostreptococcus anaerobius 1428; type: cell-based; details: agar dilution, read after 24 hrs
[24] = test system: Bacteroides corrodens 1874; type: cell-based; details: agar dilution, read after 24 hrs
[25] = test system: Propionibacterium acnes 79; type: cell-based; details: agar dilution, read after 24 hrs
Streptococcus pneumoniae = assay: experimental bacterial infection in mice, ED50; type: in vivo; details: subcutaneous, two doses
Description: (§2) The formula 1 compounds have also shown in vivo antimicrobial activity against experimental bacterial infections. When two doses of test compound were administered to mice in experimental infections, the activity observed was measured as an ED50 value [effective dose in mg/kg to protect 50% of the test animals: see Warren Wick, et al., J. Bacteriol. 81, 233-235 (1961)].

Staphylococcus aureus = assay: experimental bacterial infection in mice, ED50; type: in vivo; details: subcutaneous, two doses
Description: as §2

Streptococcus pyogenes = assay: experimental bacterial infection in mice, ED50; type: in vivo; details: subcutaneous, two doses
Description: as §2

[26] = test system: Bacteroides melaninogenicus 1856/28; type: cell-based; details: agar dilution, read after 24 hrs
Bacteroides fragilis 111 = type: cell-based; details: agar dilution, read after 24 hrs
[27] = test system: Clostridium perfringens 81; type: cell-based; details: agar dilution, read after 24 hrs
[28] = test system: Bacteroides fragilis 1936B; type: cell-based; details: agar dilution, read after 24 hrs

CC(C)C[C@@H](N)C(=O)N[C@H]1C(=O)N[C@@H](CC(N)=O)C(=O)N[C@H]2C(=O)N[C@H]3C(=O)N[C@H](C(=O)N[C@H](C(=O)O)c4cc(O)cc(O)c4-c4cc3ccc4O)[C@H](O)c3ccc(c(Cl)c3)Oc3cc2cc(c3O[C@@H]2O[C@H](CO)[C@@H](O)[C@H](O)[C@H]2O)Oc2ccc(cc2Cl)[C@H]1O [Compound 12, Desvancosamine-A51568A]
1 µg/mL: MIC [3]
8 µg/mL: MIC [9]
2 µg/mL: MIC [1] | MIC [4] | MIC [8] | MIC [10]
> 128 µg/mL: MIC (Klebsiella pneumonia X68) | MIC (Klebsiella pneumonia X26) | MIC (Escherichia coli N10) | MIC (Escherichia coli EC14) | MIC [5] | MIC [7] | MIC (Klebsiella pneumonia KAE)
4 µg/mL: MIC [2] | MIC [6] | MIC [11]
128 µg/mL: MIC (Escherichia coli TEM)

CC(C)C[C@@H](N)C(=O)N[C@H]1C(=O)N[C@@H](CC(N)=O)C(=O)N[C@H]2C(=O)N[C@H]3C(=O)N[C@H](C(=O)N[C@H](C(=O)O)c4cc(O)cc(O)c4-c4cc3ccc4O)[C@H](O)c3ccc(c(Cl)c3)Oc3cc2cc(c3O)Oc2ccc(cc2Cl)[C@H]1O [Compound 9, Agluco-A51568A]
0.5 µg/mL: MIC [3] | MIC [4] | MIC [8] | MIC [10]
1 µg/mL: MIC [12] | MIC [13] | MIC [1] | MIC [19] | MIC [20] | MIC [2] | MIC [21] | MIC (Peptococcus prevoti 1281) | MIC [22] | MIC [6] | MIC [25] | MIC [27] | MIC [11]
1.8 mg/kg/2: ED50 (Streptococcus pneumoniae)
2 µg/mL: MIC [9]
0.74 mg/kg/2: ED50 (Staphylococcus aureus)
64 µg/mL: MIC [14] | MIC [17] | MIC [24] | MIC (Bacteroides fragilis 111) | MIC [28]
2.0 mg/kg/2: ED50 (Streptococcus pyogenes)
4 µg/mL: MIC [15] | MIC [18]
≥ 0.5 µg/mL: MIC [16] | MIC [23]
> 128 µg/mL: MIC (Escherichia coli TEM) | MIC (Klebsiella pneumonia X68) | MIC (Klebsiella pneumonia X26) | MIC (Escherichia coli N10) | MIC (Escherichia coli EC14) | MIC (Klebsiella pneumonia KAE) | MIC [26]
128 µg/mL: MIC [5] | MIC [7]

CC(C)C[C@H](C(=O)N[C@H]1C(=O)N[C@@H](CC(N)=O)C(=O)N[C@H]2C(=O)N[C@H]3C(=O)N[C@H](C(=O)N[C@H](C(=O)[O-])c4cc(O)cc(O)c4-c4cc3ccc4O)[C@H](O)c3ccc(c(Cl)c3)Oc3cc2cc(c3O[C@@H]2O[C@H](CO)[C@@H](O)[C@H](O)[C@H]2O)Oc2ccc(cc2Cl)[C@H]1O)[N+](C)(C)C [Compound 5, M43C]
2 µg/mL: MIC [4] | MIC [8] | MIC [10]
> 64 µg/mL: MIC (Escherichia coli TEM) | MIC (Klebsiella pneumonia X68) | MIC (Klebsiella pneumonia X26) | MIC (Escherichia coli N10) | MIC (Escherichia coli EC14) | MIC [5] | MIC (Klebsiella pneumonia KAE)
8 µg/mL: MIC [2] | MIC [9]
4 µg/mL: MIC [6] | MIC [11]
1 µg/mL: MIC [1] | MIC [3]
64 µg/mL: MIC [7]
